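How tested: cells in 96-well plates exposed to compound for 48 hours at five concentrations. GI50 = concentration required for 50% inhibition of growth.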 Calls of active or inactive are those of the source. Rule as the data show it: active = GI50 up to about 1.1 µM and inactive = higher.
What was measured:
Experiment in all cases: growth of human tumour cells (NCI), 48 h
NCI-H522 = system: NCI-H522
NCI-H23 = system: NCI-H23
LOX IMVI = system: LOX IMVI
HCC 2998 = system: HCC 2998
CAKI-1 = system: CAKI-1
CCRF-CEM = system: CCRF-CEM
SK-MEL-5 = system: SK-MEL-5
SK-MEL-28 = system: SK-MEL-28
TK-10 = system: TK-10
M14 = system: M14
NCI-H460 = system: NCI-H460
SF-295 = system: SF-295
IGROV-1 = system: IGROV-1
DMS-114 = system: DMS-114
786-0 = system: 786-0
OVCAR-4 = system: OVCAR-4
UACC-62 = system: UACC-62
HOP-92 = system: HOP-92
Malme-3M = system: Malme-3M
HCT-15 = system: HCT-15
HL-60 = system: HL-60
DMS-273 = system: DMS-273
HOP-62 = system: HOP-62
HCT-116 = system: HCT-116
EKVX = system: EKVX
UACC-257 = system: UACC-257
SN12C = system: SN12C
OVCAR-8 = system: OVCAR-8
ACHN = system: ACHN
SF-539 = system: SF-539
SR = system: SR
HOP-18 = system: HOP-18
OVCAR-3 = system: OVCAR-3
KM-20L2 = system: KM-20L2
SF-268 = system: SF-268
KM12 = system: KM12
MOLT-4 = system: MOLT-4
SK-OV-3 = system: SK-OV-3
SNB-19 = system: SNB-19
SW-620 = system: SW-620
SNB-75 = system: SNB-75
M19-MEL = system: M19-MEL
COLO 205 = system: COLO 205
HT-29 = system: HT-29
A549 = system: A549
LXFL 529 = system: LXFL 529
RXF 631 = system: RXF 631
UO-31 = system: UO-31

## O=C(Nc1nnc(S)[nH]1)C(=O)C1C(=O)Nc2ccccc2[S+]1[O-] (stereo not drawn)
NCI-H522
  GI50: > 100 µM (inactive)
NCI-H23
  GI50: > 100 µM (inactive)
LOX IMVI
  GI50: > 100 µM (inactive)
HCC 2998
  GI50: > 100 µM (inactive)
CAKI-1
  GI50: > 100 µM (inactive)
CCRF-CEM
  GI50: > 100 µM (inactive)
SK-MEL-5
  GI50: > 100 µM (inactive)
SK-MEL-28
  GI50: > 100 µM (inactive)
TK-10
  GI50: > 100 µM (inactive)
M14
  GI50: > 100 µM (inactive)
NCI-H460
  GI50: > 100 µM (inactive)
SF-295
  GI50: > 100 µM (inactive)
IGROV-1
  GI50: > 100 µM (inactive)
DMS-114
  GI50: > 100 µM (inactive)
786-0
  GI50: > 100 µM (inactive)
OVCAR-4
  GI50: > 100 µM (inactive)
UACC-62
  GI50: > 100 µM (inactive)
HOP-92
  GI50: > 100 µM (inactive)
Malme-3M
  GI50: > 100 µM (inactive)
HCT-15
  GI50: > 100 µM
HL-60
  GI50: > 100 µM (inactive)
DMS-273
  GI50: > 100 µM (inactive)
HOP-62
  GI50: > 100 µM (inactive)
HCT-116
  GI50: > 100 µM (inactive)
EKVX
  GI50: > 100 µM (inactive)
UACC-257
  GI50: > 100 µM (inactive)
SN12C
  GI50: > 100 µM (inactive)
OVCAR-8
  GI50: > 100 µM (inactive)
ACHN
  GI50: > 100 µM (inactive)
SF-539
  GI50: > 100 µM (inactive)
SR
  GI50: > 100 µM (inactive)
HOP-18
  GI50: > 100 µM (inactive)
OVCAR-3
  GI50: > 100 µM (inactive)
KM-20L2
  GI50: > 100 µM (inactive)
SF-268
  GI50: > 100 µM (inactive)
KM12
  GI50: > 100 µM (inactive)
MOLT-4
  GI50: > 100 µM (inactive)
SK-OV-3
  GI50: > 100 µM (inactive)
SNB-19
  GI50: > 100 µM (inactive)
SW-620
  GI50: > 100 µM (inactive)
SNB-75
  GI50: > 100 µM (inactive)
M19-MEL
  GI50: > 100 µM (inactive)
COLO 205
  GI50: > 100 µM (inactive)
HT-29
  GI50: > 100 µM (inactive)
A549
  GI50: > 100 µM (inactive)
LXFL 529
  GI50: > 100 µM (inactive)
RXF 631
  GI50: > 100 µM (inactive)
UO-31
  GI50: > 100 µM (inactive)

Reference: ChEMBL document CHEMBL1201862, “PubChem BioAssay data set” (2004)
